{"source": "patent US11478445B2", "about": "“Method for treating acute myeloid leukemia” (Bionomics Limited, priority 2017, dated 2022)", "assay_type_in_all_cases": "cell-based", "key": {"AML cell lines [1]": {"test_system": "AML cell lines", "assay": "Mitochondria O2.- assay (MitoSox, flow cytometry)", "method": "(§1) 1.25×10^5 cells were harvested into 5 mL tubes and washed with PBS. Cell pellets were resuspended in 180 μL of PBS and 20 μL of freshly prepared 5 mM MitoSox (Molecular Probes, M36008) solution added to each tube. All tubes were incubated at 37° C. for 20 min and then cells washed 3 times with PBS. Cells were resuspended in 300 μL PBS and analysed on an LSRFortessa (BD Biosciences) flow cytometer. Results were analysed with FCS Express 4 Flow Research Edition software (De Novo Software).\n(§2) For that, cells were plated at 10^6 cells/mL and treated with vehicle (DMSO) alone or a range of doses of EX 1 (0.1 nM, 1 nM, 10 nM and 100 nM) for 6 h, 8 h and 24 h. Cells were harvested for detection of ROS and superoxide anion (O2^·−) levels at 6 h and 24 h, for protein extraction at 8 h and 24 h, and for cell cycle analysis at 24 h.\n(§3) Total ROS levels were measured by flow cytometry using the fluorogenic dye CM-H2DCFDA at a final concentration of 5 μM. Mitochondria superoxide anion (O2^·−) levels were measured by flow cytometry using MitoSox, also at a final concentration of 5 μM."}, "Noxa": {"test_system": "Noxa", "assay": "Western blot for Noxa in AML cell lines", "settings": "six AML cell lines, 10 nM and 100 nM, 8 h", "method": "(§4) Cells were harvested (4×10^6 for cell lines and 7×10^6 for L-AMLs) and washed 3 times with cold PBS (centrifuged at 4° C.). Lysis buffer was prepared with NP40 Cell Lysis Buffer (ThermoFisher Scientific), cOmplete protease inhibitor (Roche, 046993116001), PhosStop (Roche, 04906837001) and Pefablock (Roche, 11585916001) at the recommended concentrations. After the washes, cells were resuspended in 50 μL of lysis buffer, vortexed and incubated on ice for 30 min. Samples were vortexed every 10 min. After 30 min incubation, samples were centrifuged at 14,000 g at 4° C. for 10 min and supernatants were transferred to tubes. Protein was quantified using the DC Protein Assay kit (BioRad) per manufacturer's protocol. 50 μg of cell lines lysate or 20 μg of L-AML6 lysate were loaded for SDS-PAGE. Protein was transferred from the gels into PVDF membranes using a semi dry transfer apparatus (BioRad). […]\n(§5) Once it was determined that this group of AML cell lines are highly sensitive to EX 1, the mechanism underlying this response was investigated. […]\n(§6) Therefore, cells were treated with a range of doses of EX 1 for 8 h and 24 h, as described above, before protein extraction was performed. […] Noxa was readily detected in control lysate prepared from HEK293 cells."}, "AML cell lines [2]": {"test_system": "AML cell lines", "assay": "Total ROS assay (CM-H2DCFDA, flow cytometry)", "method": "as §1, with “Cell pellets were resuspended in 180 μL of PBS and 20 μL of freshly prepared 5 mM MitoSox (Molecular Probes, M36008) solution added to each tube.” left out\nas §2, §3"}, "P-JNK^Thr183/Tyr185": {"test_system": "P-JNK^Thr183/Tyr185", "assay": "Western blot for P-JNK in AML cell lines", "settings": "all cell lines, 8 h, 10 nM and 100 nM", "method": "as §4, §5, §6"}}, "note": "“Also recorded” adds a separate entry of the source.", "data": [{"molecule": "COc1cc(C(=O)c2c(C)oc3c(O)c(OC)ccc23)cc(OC)c1OC", "note": "[EX 1, 2-Methyl-7-hydroxy-3-(3,4,5-trimethoxybenzoyl)-6-methoxybenzofuran]", "values": [{"measurement": "mitochondria O2.- levels", "setting": "AML cell lines [1]; HL60 and ME1, 6 h", "result": "showed a decrease in mitochondria O2^·− levels"}, {"measurement": "mitochondria O2.- levels", "setting": "AML cell lines [1]; KG1", "result": "did not respond to the drug treatment with any detectable changes"}, {"measurement": "mitochondria O2.- levels", "setting": "AML cell lines [1]; ME1, 24 h", "result": "even greater effect observed at 24 h"}, {"measurement": "mitochondria O2.- levels", "setting": "AML cell lines [1]; MV4;11 and MOLM13, 24 h", "result": "increased mitochondria O2^·− levels observed at 24 h only"}, {"measurement": "mitochondria O2.- levels", "setting": "AML cell lines [1]; OCI-AML3, 6 h", "result": "slight decrease"}, {"measurement": "mitochondria O2.- levels", "setting": "AML cell lines [1]; OCI-AML3, 24 h", "result": "appeared to have increased O2^·− levels"}, {"measurement": "Noxa induction", "setting": "Noxa", "result": "could only be detected in OCI-AML3 and ME1; also recorded: only observed in OCI-AML3 and ME1 lines"}, {"measurement": "total ROS levels", "setting": "AML cell lines [2]; OCI-AML3, 24 h", "result": "dose response reduction in total ROS"}, {"measurement": "total ROS levels", "setting": "AML cell lines [2]; the other cell lines (not OCI-AML3), 6 h and 24 h", "result": "none of the other cell lines showed any changes in total ROS levels"}, {"measurement": "P-JNK induction", "setting": "P-JNK^Thr183/Tyr185", "result": "strongly induced in all cell lines; also recorded: induced in all cell lines"}]}]}
